According to US10988465B2, “CXCR4 inhibitors and uses thereof” (X4 Pharmaceuticals, Inc., priority 2016, dated 2021):
Read-outs that look alike come from different tables or passages of the source.

How the values were obtained:
[1] = in vitro; conditions: human, Caco-2, pH 7.4
Procedure, shortened: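 Bidirectional permeability across Caco-2 monolayers in HBSS (pH 7.4) at a test concentration of 10 μM, incubated 0 and 90 min at 37° C (n=2). Monolayer integrity was assessed by TEER and Lucifer yellow. Papp was derived from LC-MS/MS-measured concentrations.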

[2] = Mouse brain uptake assay (MBUA), 3 mg/kg IV, 0-1 h, 3 time points; assay type: in vivo, male CD1 mice; conditions: for clearance / half-life: CD1, plasma, 3 time points; for half-life: read-out: t½ (converted)
Protocol: Example 38: Pharmacokinetics and Brain Penetration Experiment to Determine Brain and Plasma Concentrations of Compounds after IV Administration to Male CD1 Mice
The study design (9 animals) consisted of administrating the drug (IV: 3 mg/kg (5 mL/kg) via tail vein injection) and collecting samples at terminal bleeding for plasma and brain at 0.083, 0.5 and 1 h. The IV dosing solution was prepared in 50 mM citrate buffer (pH 4.0) at 0.6 mg/mL. The blood collection was performed as follows: the animal was restrained manually and approximately 150 μL blood/time point was collected into a dipotassium EDTA tube via retro orbital puncture under anesthesia with isoflurane. The blood sample was put on ice and centrifuged to obtain a plasma sample (2000 g, 5 min under 4° C.) within 15 minutes. The brain collection was performed as follows: a mid-line incision was made in the animal's scalp and the skin was retracted. Using small bone cutters and rongeurs, the skull overlying the brain was removed. The brain was removed using a spatula and the brain rinsed with cold saline. The brain was placed in screw-top tubes, and the tubes were stored at −70° C. until analysis.
An aliquot of 30 μL sample was added to 150 μL MeCN containing 50 ng/mL IS (Dexamethasone). The mixture was vortexed for 5 min and centrifuged at 14,000 rpm for 5 min. An aliquot of 5 μL supernatant was injected for LC-MS/MS analysis.
An aliquot of 30 μL brain homogenate (brain:PBS=1:3, w/v) sample was added to 150 μL IS in MeCN (Dexamethasone, 50 ng/mL). The mixture was vortexed for 5 min and centrifuged at 14,000 rpm for 5 min. An aliquot of 5 μL supernatant was injected for LC-MS/MS analysis.
The sample analysis was performed on LCMS/MS-003 (API4000, triple quadruple) under the following conditions: positive ion, ESI, MRM detection using dexamethasone as internal standard. HPLC conditions: mobile phase A: H2O (0.025% formic acid (FA) with 1 mM NH4OAc); mobile phase B: MeOH (0.025% FA with 1 mM NH4OAc) on Waters X-Bridge C18 (2.1×50 mm, 2.5 μm) column at 60° C.

[3] = Rat brain uptake assay: pharmacokinetics and brain penetration after IV-PO administration; assay type: in vivo, male SD rats
[4] = male, CD1, brain, mouse, 3 mg/kg IV, 0-1 h, read-out: AUClast (b)
[5] = male, CD1, plasma, mouse, 3 mg/kg IV, 0-1 h, read-out: AUClast (P)
[6] = brain (brain proteins), read-out: Fu (b) % (fraction of drug unbound to brain proteins)
[7] = plasma, read-out: Fu (p) % (fraction of drug unbound to plasma proteins)

| efflux ratio at 90 min, 10 μM [1] | Kp ([2]; male, CD1, mouse, brain/plasma, iv, 3 mg/kg) | Kp uu ([2]; male, CD1, unbound brain/unbound plasma, mouse, 3 mg/kg IV, 0-1 h, read-out: Kp, uu) | fraction unbound ([2]; mouse, fraction unbound to brain proteins, read-out: Fu (b) %) | fraction unbound ([2]; mouse, fraction unbound to plasma proteins, read-out: Fu (p) %) | Compound | Papp A→B at 90 min, 10 μM [1] | Papp B→A at 90 min, 10 μM [1] | clearance ([2]; male, mouse, 3 mg/kg IV, 0-1 h) | half-life ([2]; male, mouse, 3 mg/kg IV, 0-1 h) | AUC(0-t) [2, 4] | AUC(0-t) [2, 5] | fraction unbound [3, 6] | fraction unbound [3, 7] |
| --- | --- | --- | --- | --- | --- | --- | --- | --- | --- | --- | --- | --- | --- |
| – | – | – | – | – | Cc1cccnc1[C@@H]1CCC[C@H](c2nc3cccc(N4CCN(C)CC4)c3[nH]2)N1C (racemic) [I-3, 2-((2R,6S)-1-methyl-6-(3-methylpyridin-2-yl)piperidin-2-yl)-7-(4-methylpiperazin-1-yl)-1H-benzo[d]imidazole] | 0.1 to 10 ×10⁻⁶ cm/s | 10 to 30 ×10⁻⁶ cm/s | 115 mL/min/kg | 18 min | 180 ng·h/mL | 268 ng·h/mL | 0.014 | 0.101 |
| 0.1 to 10 | 1.23 | 0.33 | 0.035 | 0.127 | CN1CCN(c2cccc3nc([C@H]4CCC[C@@H](c5ncccc5Cl)N4)[nH]c23)CC1 (racemic) [I-122] | 10 to 30 ×10⁻⁶ cm/s | 10 to 30 ×10⁻⁶ cm/s | 119 mL/min/kg | 24.1 min | 418 ng·h/mL | 341 ng·h/mL | 0.041 | 0.251 |
